Assay [1] deals with proteases from the fourth larval instars of R. ferrugineus's midgut. Put plainly: Specific protease inhibitors on midgut proteases (in vitro, Figure S2). The class given is biochemical, Rhynchophorus ferrugineus. To be noted: purified proteases of fourth larval instar midgut. How it is done:
The activity of cysteine proteinase was determined in the fourth midgut instar larval homogenate of R. ferrugineus using the substrate Z-Phe-Arg-MNA [1]. Ten larvae were carefully removed, dissected, and rinsed repeatedly with NaCl solution (0.9% (w/v). The midgut instar was homogenized in protease assay buffer (500 µL) [5 mM DTT, 50 mM HEPS (N-2-Hydroxyethyl piperazin-N’-2-ethanesulfonic acid), pH 8.0, and 0.1 percent Triton X-100]. The reaction mixture was centrifuged for 30 min at 5000 rpm (Sigma 3k30 cooling centrifuge). The supernatant was utilized to determine the overall activity of proteolytic enzymes and the protein content. The supernatant (10 µL) was incubated for 30 min at 37 °C, and the volume was adjusted to 60 µL using assay buffer (pH 8) before adding 100 µL of substrate (0.5 mM). Prior to adding the substrate, 10 µL enzyme samples were pre-incubated with iodoacetic acid for 10 min. After 60 min at 37 °C of mixture incubation, the reaction was halted with the addition of 1.5 mL mersalyl (5 mM), 0.02 mg/mL fast garnet reactive solution, and 2% Tween 20. The reaction was centrifuged (at 5000 rpm, 6 min), then the absorbance was determined (at 520 nm). The activity of cysteine proteinase was measured using an ELISA quick plate reader at the OD520/60 min/mg of midgut protein. As a blank, a test mixture devoid of enzyme was used. […] The fourth homogenates of midgut larval were produced as reported before in the experiment for determining enzyme activity. […]
To learn more about the proteases found in homogenate preparations of R. ferrugineus fourth midgut larval instars, inhibitors from many different types of mechanisms were used. […] The absorbance of the enzymes was determined using an ELISA plate quick reader at various wavelengths. The percentage activity of the control enzyme for each inhibitor was evaluated for each enzyme. Protease activity was assayed in vivo in the R. ferrugineus fourth midgut larval instars, which were treated with 1, 10, 50, 100, 500, 1000, and 5000 mg/L of extracts or compounds, measured as described above. […]

Assay [2] deals with total proteases. Put plainly: Total protease activity of midgut from larvae treated 24 h (in vivo). To be noted: midgut of fourth instar larvae treated for 24 h. Details: species or system Rhynchophorus ferrugineus. How it is done:
(§1) The Lowry technique was used to determine the protein concentrations. Total proteolytic activity was determined in the fourth midgut instar larval (lab strain) homogenate of R. ferrugineus with azocasein in accordance with […] et al. […] [70]. […] Using a Sigma 3k30 cooling centrifuge, reserve homogenates prepared in a previous stage were spun at 5000 rpm for 30 min. Estimates of protein content and total proteolytic enzyme activity were made using the supernatants. The supernatant (10 μL) was incubated at 37 °C for 20 min, and the volume was adjusted to 60 μL using an assay buffer (pH 8), before adding azocasien (200 μL, 2% (w/v)). […] Following that, to activate the reaction, the substrate was introduced 20 min for Leupeptin, so the reaction was halted after 180 min at 37 °C with 300 μL of cool tri-chloroacetic acid (TCA) (10% (v/v). The mixture was centrifuged for 20 min at 5000 rpm (Sigma 3k30 cooling centrifuge). […] To learn more about the proteases found in homogenate preparations of R. ferrugineus fourth midgut larval instars, inhibitors from many different types of mechanisms were used. […] As a control, an assay combination devoid of inhibitors was utilized. The absorbance of the enzymes was determined using an ELISA plate quick reader at various wavelengths. The percentage activity of the control enzyme for each inhibitor was evaluated for each enzyme. […] Larvae were exposed for 24 h to leaf discs treated with extract and compounds.

The subject of assay [3] is metalloprotease. Put plainly: Metalloprotease activity of midgut from larvae treated 24 h (in vivo). To be noted: midgut of fourth instar larvae treated for 24 h. On the set-up: species or system Rhynchophorus ferrugineus. How it is done:
(§2) A substrate azocasein assessed the metalloproteinases activity in the fourth midgut instar larval homogenate. Ten larvae were carefully removed, dissected, and rinsed repeatedly with NaCl solution (0.9% (w/v). […] After homogenization, the homogenates were centrifuged at 5000 rpm (for 30 min) using a Sigma centrifuge 3k30, and the supernatant was utilized to determine enzyme activity and protein content. The supernatant per experiment (10 µL) was incubated for 20 min at 37 °C, and the volume was adjusted to 60 µL using assay buffer pH 8 before adding azocasein (200 µL, 2% (w/v)). In all instances, 10 µL enzyme samples were incubated for 10 min (except EDTA with 20 min), and EDTA was used as a blocker of metalloproteinase activity before being added to the specific substrate. The reaction was interrupted with 300 µL of trichloroacetic acid (TCA cold, 10% (v/v) and continued at 37 °C for 180 min. The reaction mixture was then centrifuged at 5000 rpm for 20 min (Sigma centrifuge 3k30), sodium hydroxide (10 µL of 10 N) was incorporated into the supernatant, then absorbance was determined using an ELISA plate reader at 450 nm. As a blank, an assay mixture devoid of the enzyme was devoted, the specific activity was determined using the OD450 mg^−1 protein min^−1 value, and a blank solution sample devoid of enzyme solution was determined. To learn more about the proteases found in homogenate preparations of R. ferrugineus fourth midgut larval instars, inhibitors from many different types of mechanisms were used. […] As a control, an assay combination devoid of inhibitors was utilized. The absorbance of the enzymes was determined using an ELISA plate quick reader at various wavelengths. The percentage activity of the control enzyme for each inhibitor was evaluated for each enzyme. […] Larvae were exposed for 24 h to leaf discs treated with extract and compounds.

Assay [4] deals with metalloprotease. Put plainly: Metalloproteinase activity, azocasein (in vitro). In kind it is biochemical, Rhynchophorus ferrugineus. The following applies: fourth instar larvae midgut homogenate. How it is done: as §2
In assay [5] the target is trypsin-like serine proteinase. The assay is described as follows: Serine proteinase microplate assay, BApNA (in vitro). The class given is biochemical, Rhynchophorus ferrugineus. To be noted: fourth instar larvae midgut homogenate. How it is done: The specific activities of serine proteinase were determined using a rapid quick microplate assay with substrates in reaction mixtures (150 μL) including a serine protease assay buffer, according to […] et al. and Olga et al. with modifications. The midguts were homogenized in the assay buffer (100 mM Tris-HCl, pH 8.1) and centrifuged for 30 min at 8000 rpm (Sigma 3K 30, rotors No. 12158). […] […] (100 mg/mL in DMF), BAρNA (100 mg/mL in DMSO), and […] (100 mg/mL in DMF) stock substrates were diluted in the assay buffer to 1 mg/mL, and substrate volume was 50 μL. […] The activity was quantified using an ELISA plate reader at a wavelength of 405 nm. As an empty well, an assay combination containing a denaturation enzyme was utilized instead of an active enzyme. […] To learn more about the proteases found in homogenate preparations of R. ferrugineus fourth midgut larval instars, inhibitors from many different types of mechanisms were used. […] As a control, an assay combination devoid of inhibitors was utilized. The absorbance of the enzymes was determined using an ELISA plate quick reader at various wavelengths. The percentage activity of the control enzyme for each inhibitor was evaluated for each enzyme. […] Larvae were exposed for 24 h to leaf discs treated with extract and compounds.

The subject of assay [6] is trypsin-like serine proteinase. The assay is described as follows: Trypsin-like activity of midgut from larvae treated 24 h (in vivo). To be noted: midgut of fourth instar larvae treated for 24 h. On the set-up: species or system Rhynchophorus ferrugineus. How it is done:
The midguts were homogenized in the assay buffer (100 mM Tris-HCl, pH 8.1) and centrifuged for 30 min at 8000 rpm (Sigma 3K 30, rotors No. 12158). […] […] (100 mg/mL in DMF), BAρNA (100 mg/mL in DMSO), and […] (100 mg/mL in DMF) stock substrates were diluted in the assay buffer to 1 mg/mL, and substrate volume was 50 μL. […] The activity was quantified using an ELISA plate reader at a wavelength of 405 nm. As an empty well, an assay combination containing a denaturation enzyme was utilized instead of an active enzyme. […] To learn more about the proteases found in homogenate preparations of R. ferrugineus fourth midgut larval instars, inhibitors from many different types of mechanisms were used. […] As a control, an assay combination devoid of inhibitors was utilized. The absorbance of the enzymes was determined using an ELISA plate quick reader at various wavelengths. The percentage activity of the control enzyme for each inhibitor was evaluated for each enzyme. […] Larvae were exposed for 24 h to leaf discs treated with extract and compounds.

The target of assay [7] is cysteine protease. The assay is described as follows: Cysteine proteinase activity, Z-Phe-Arg-MNA (in vitro). In kind it is biochemical, Rhynchophorus ferrugineus. To be noted: fourth instar larvae midgut homogenate. How it is done:
The activity of cysteine proteinase was determined in the fourth midgut instar larval homogenate of R. ferrugineus using the substrate Z-Phe-Arg-MNA [1]. Ten larvae were carefully removed, dissected, and rinsed repeatedly with NaCl solution (0.9% (w/v). The midgut instar was homogenized in protease assay buffer (500 µL) [5 mM DTT, 50 mM HEPS (N-2-Hydroxyethyl piperazin-N’-2-ethanesulfonic acid), pH 8.0, and 0.1 percent Triton X-100]. The reaction mixture was centrifuged for 30 min at 5000 rpm (Sigma 3k30 cooling centrifuge). The supernatant was utilized to determine the overall activity of proteolytic enzymes and the protein content. The supernatant (10 µL) was incubated for 30 min at 37 °C, and the volume was adjusted to 60 µL using assay buffer (pH 8) before adding 100 µL of substrate (0.5 mM). Prior to adding the substrate, 10 µL enzyme samples were pre-incubated with iodoacetic acid for 10 min. After 60 min at 37 °C of mixture incubation, the reaction was halted with the addition of 1.5 mL mersalyl (5 mM), 0.02 mg/mL fast garnet reactive solution, and 2% Tween 20. The reaction was centrifuged (at 5000 rpm, 6 min), then the absorbance was determined (at 520 nm). The activity of cysteine proteinase was measured using an ELISA quick plate reader at the OD520/60 min/mg of midgut protein. As a blank, a test mixture devoid of enzyme was used. […] The fourth homogenates of midgut larval were produced as reported before in the experiment for determining enzyme activity. As previously disclosed, the inhibitory experiment was performed using a microplate assay. A series of inhibitor concentrations was created to determine the inhibitor’s maximal inhibitory effect. Leupeptin concentrations of 0.01, 0.05, 0.1, and 1.0 mM, PMSF concentrations of 0.1, 1.0, 10, and 50 mM, TLCK and TPCK concentrations of 0.01, 0.05, 0.1, 1, 50, and 100 mM, EDTA concentrations of 0.1, 1, 10, 50, and 100 mM, and iodoacetic acid concentrations of 0.01, 0.05, 0.1, and 1 mM.
As a control, an assay combination devoid of inhibitors was utilized. The absorbance of the enzymes was determined using an ELISA plate quick reader at various wavelengths. The percentage activity of the control enzyme for each inhibitor was evaluated for each enzyme. Protease activity was assayed in vivo in the R. ferrugineus fourth midgut larval instars, which were treated with 1, 10, 50, 100, 500, 1000, and 5000 mg/L of extracts or compounds, measured as described above. Larvae were exposed for 24 h to leaf discs treated with extract and compounds.

Assay [8] concerns total proteases. The assay is described as follows: Total proteolytic activity of fourth instar midgut homogenate, azocasein (in vitro). To be noted: fourth instar larvae midgut homogenate. In kind it is biochemical, Rhynchophorus ferrugineus. How it is done:
as §1

Assay [9] has as its system cysteine protease. Put plainly: Cysteine protease activity of midgut from larvae treated 24 h (in vivo). On the set-up: species or system Rhynchophorus ferrugineus. The following applies: midgut of fourth instar larvae treated for 24 h. How it is done: The activity of cysteine proteinase was determined in the fourth midgut instar larval homogenate of R. ferrugineus using the substrate Z-Phe-Arg-MNA [1]. […] The reaction was centrifuged (at 5000 rpm, 6 min), then the absorbance was determined (at 520 nm). The activity of cysteine proteinase was measured using an ELISA quick plate reader at the OD520/60 min/mg of midgut protein. […]
As a control, an assay combination devoid of inhibitors was utilized. The absorbance of the enzymes was determined using an ELISA plate quick reader at various wavelengths. The percentage activity of the control enzyme for each inhibitor was evaluated for each enzyme. Protease activity was assayed in vivo in the R. ferrugineus fourth midgut larval instars, which were treated with 1, 10, 50, 100, 500, 1000, and 5000 mg/L of extracts or compounds, measured as described above. […]

With `Cc1ccc(S(=O)(=O)N[C@@H](Cc2ccccc2)C(=O)CCl)cc1` [TPCK], in [1], the “effect of specific inhibitor on midgut proteases” value (shortened to “effect of specific inhibitor”) is reported as “dramatically suppressed”.
With `C[C@H]1[C@H](C)CC[C@]2(C(=O)O)CC[C@]3(C)C(=CC[C@@H]4[C@@]5(C)CC[C@H](O)C(C)(C)[C@@H]5CC[C@]43C)[C@H]12` [Ursolic acid], the “IC50 against total proteases (in vivo)” value in assay [2] is recorded as 279.5 µg/mL. Besides, the “IC50 against metalloprotease (in vivo)” value in [3] is given as 548.3 µg/mL. For the same compound, the “IC50 against metalloprotease (in vitro)” value in [4] is listed as 119.4 µg/mL. Also, in assay [5], the “IC50 against trypsin-like serine proteinase (in vitro)” value worked out at 57.4 µg/mL. Besides, in [6], the “IC50 against trypsin-like serine proteinase (in vivo)” value came to 235.1 µg/mL. The “IC50 against cysteine protease (in vitro)” value in assay [7] was determined as 58.2 µg/mL. Besides, in assay [8], the “IC50 against total proteases (in vitro)” value is recorded as 67.2 µg/mL. The “IC50 against cysteine protease (in vivo)” value in [9] is 685.2 µg/mL.
On to `Cc1ccc(S(=O)(=O)N[C@@H](CCCCN)C(=O)CCl)cc1` [TLCK], for which the “effect of specific inhibitor” value in assay [1] is “dramatically suppressed”.
`O=C(O)CI` [iodoacetic acid]: the “effect of specific inhibitor” value in assay [1] is “dramatically suppressed”.
